Paper PMC5474694, “Fragment-Sized EthR Inhibitors Exhibit Exceptionally Strong Ethionamide Boosting Effect in Whole-Cell Mycobacterium tuberculosis Assays” (ACS Chemical Biology, 2017)

Tests used:
[1] = tested on: M. tuberculosis; type: cell-based, Mycobacterium tuberculosis (ATCC 27294); details: for MEC (minimum effective concentration) / MEC for the 10-fold boosting of ethionamide / ethionamide boosting ability in M. tuberculosis culture: in the presence of 1/10 of the MIC of ethionamide; for MEC (minimum effective concentration): mean ± standard deviation of two independent replicates; for fold improvement in MEC on the starting fragment 1: relative to fragment 1; for fold drop in potency (MEC) on addition of an extra methylene unit to the linker: 15 relative to 14, 29 relative to 28
[2] = tested on: M. tuberculosis infected murine macrophages; experiment: Macrophage (intracellular) assay; type: cell-based, M. tuberculosis H37Rv-GFP in Raw264.7 macrophages; details: for IC50 / EC50: Mycobacterium tuberculosis, Macrophage; for IC50: in the absence of ethionamide, read-out: IC50, intrinsic bactericidal effect; for EC50: in the presence of 1/10 of the MIC of ethionamide; for concentrations at which intrinsic bactericidal activity against M. tuberculosis is seen: compound alone, without ethionamide
[3] = biological target: EthR (Mycobacterium tuberculosis, UniProt P9WMC1); experiment: Isothermal titration calorimetry (ITC) binding to EthR; details: n = 1, one site binding model
Protocol: Isothermal titration calorimetry (ITC)
An aqueous solution of the fragment to be tested (1 mM) was prepared containing NaCl (300 mM), Tris.HCl (20 mM, pH = 8.0), d6-DMSO (10% v/v) and glycerol (to match the 10% v/v glycerol content in the EthR stock solution). A separate aqueous solution of EthR (50 μM) containing NaCl (300 mM), Tris.HCl (20 mM, pH = 8.0) and DMSO-d6 (10% v/v) was prepared and placed in the sample cell of a MicroCal iTC200 microcalorimeter (GE Healthcare). The fragment solution was then titrated to the EthR solution over 19 or 39 injections (first injection of 0.4 μl and subsequent injections of 2.0 μL or 1.0 μL). Data was fitted to a one site binding model using Origin software.
Figure S10 ITC trace for cyclopentylmethyl pyrrolidine-1-carboxylate 2 binding to EthR.
(1 picture or pasted object on this page, not shown here)

[4] = tested on: M. tuberculosis; design: method as in PMID 24313835; details: cited from earlier work

EthR, sequence (P9WMC1 whole entry, looked up): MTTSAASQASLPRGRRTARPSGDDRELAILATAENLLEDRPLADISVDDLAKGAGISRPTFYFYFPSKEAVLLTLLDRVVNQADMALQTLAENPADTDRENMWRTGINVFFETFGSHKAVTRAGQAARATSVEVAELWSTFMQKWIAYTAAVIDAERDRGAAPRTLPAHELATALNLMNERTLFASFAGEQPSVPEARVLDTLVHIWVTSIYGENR

## O=C(CC1CCCC1)N1CCCC1 [Compound 12]
[1]
  MEC (minimum effective concentration): 19 ± 7.5 µM

## O=C(CCCC1CCCCC1)N1CCCC1 [Compound 14]
[1]
  MEC for the 10-fold boosting of ethionamide: 400 nM
  MEC (minimum effective concentration): 0.4 ± 0.2 µM
  fold improvement in MEC on the starting fragment 1: approximately 7 fold
[2]
  IC50: ~1 µM
  EC50: 0.04 µM

## CC(C)(C)OC(=O)N1CCCC1 [Compound 30, Boc-pyrrolidine]
[1]
  MEC (minimum effective concentration): > 50 µM

## O=C(NCc1ccoc1)N1CCCC1 [Compound 9]
[1]
  MEC (minimum effective concentration): >50 µM

## O=S(=O)(CCC1CCCC1)N1CCCC1 [Compound 5]
[3]
  Kd: 16 µM
[1]
  MEC (minimum effective concentration): >50 µM

## CN(C)C(=O)OCC1CCCC1 [Compound 26]
[1]
  MEC (minimum effective concentration): 6.3 ± 3.6 µM

## O=C(OCC1CCCCC1)N1CCCC1 [Compound 25]
[1]
  MEC (minimum effective concentration): 1.6 ± 0.9 µM
[2]
  ethionamide boosting in the macrophage assay: significant boosting of ethionamide
  concentrations at which intrinsic bactericidal activity against M. tuberculosis is seen: higher than 1 μM

## O=C(CCC1CCCCC1)N1CCCC1 [Compound 13]
[1]
  MEC (minimum effective concentration): 0.8 ± 0.5 µM
  fold improvement in MEC on the starting fragment 1: approximately 4 fold

## O=C(OCCCCC1CCCCC1)N1CCCC1 [Compound 29]
[1]
  fold drop in potency (MEC) on addition of an extra methylene unit to the linker: roughly 16 fold
  MEC (minimum effective concentration): 6.3 ± 3.6 µM

## O=C(OCC1CC1)N1CCCC1 [Compound 23]
[1]
  MEC (minimum effective concentration): 3.1 ± 1.8 µM
[2]
  ethionamide boosting in the macrophage assay: significant boosting of ethionamide

## O=C(CC12CC3CC(CC(C3)C1)C2)N1CCCC1 [Compound 17]
[1]; 17 relative to the inactive amide 16
  fold increase in ethionamide boosting ability: over 30 fold
[1]
  MEC (minimum effective concentration): 1.6 ± 0.8 µM

## O=C(NCC1CCCC1)C1CCCC1 [Compound 4]
[3]
  Kd: 11 µM
[1]
  MEC (minimum effective concentration): >50 µM

## O=C(OCCCC1CCCC1)N1CCCC1 [Compound 28]
[1]
  MEC for the 10-fold boosting of ethionamide: 400 nM
  MEC (minimum effective concentration): 0.4 ± 0.2 µM
  fold improvement in MEC on the starting fragment 1: roughly 7 fold
[2]
  IC50: ~1 µM
  EC50: 0.05 µM

## O=C(OCC1CCCC1)N1CCC1 [Compound 27]
[1]
  MEC (minimum effective concentration): 13 ± 7.2 µM

## O=S(=O)(NCC1CCCC1)N1CCCC1 [Compound 6]
[3]
  Kd: 20 µM
[1]
  MEC (minimum effective concentration): >50 µM

## CCCCC(=O)N1CCCC1 [Compound 18]
[1]
  MEC (minimum effective concentration): > 50 µM

## CCc1cc(C(N)=S)ccn1 [ethionamide]
[4]; ethionamide alone
  MIC of ethionamide: 15 µM

## O=C(CCC1CCCC1)N1CCCC1 [Compound 1]
[2]
  ethionamide boosting in the macrophage assay: significant boosting of ethionamide
  concentrations at which intrinsic bactericidal activity against M. tuberculosis is seen: higher than 1 μM
[4]; fragment 1 at a concentration of 1 μM
  MIC of ethionamide in the presence of fragment 1: approximately 2 μM

## O=C(/C=C/c1ccoc1)N1CCCC1 [Compound 7]
[3]
  Kd: 20 µM
[1]
  MEC (minimum effective concentration): >50 µM

## O=C(CCCCC1CCCCC1)N1CCCC1 [Compound 15]
[1]
  fold drop in potency (MEC) on addition of an extra methylene unit to the linker: 4 fold
  MEC (minimum effective concentration): 1.6 ± 0.8 µM

## O=C(OCC1CCCC1)N1CCCC1 [Compound 2, cyclopentylmethyl pyrrolidine-1-carboxylate]
[3]
  Kd: 15 µM
[1]
  MEC (minimum effective concentration): 19 ± 7.5 µM

## O=C(N1CCCC1)C12CC3CC(CC(C3)C1)C2 [Compound 16]
[1]
  MEC (minimum effective concentration): > 50 µM

## O=C(OCC1CCC1)N1CCCC1 [Compound 24]
[1]
  MEC (minimum effective concentration): 3.1 ± 1.8 µM

## CCCC(=O)N1CCCC1 [Compound 19]
[1]
  MEC (minimum effective concentration): > 50 µM

## O=C(CCc1ccoc1)N1CCCC1 [Compound 8]
[3]
  Kd: 22 µM
[1]
  MEC (minimum effective concentration): >50 µM

## O=C(OCC1CCCC1)N1CCCCCC1 [Compound 21]
[1]
  ethionamide boosting ability in M. tuberculosis culture: loss of ethionamide boosting ability
  MEC (minimum effective concentration): > 50 µM

## O=C(NCC1CCOC1)N1CCCC1 (centres unmarked) [Compound 10]
[1]
  MEC (minimum effective concentration): >50 µM

## O=C(OCCC1CCCC1)N1CCCC1 [Compound 22]
[1]
  MEC (minimum effective concentration): 1.6 ± 0.9 µM
[2]
  ethionamide boosting in the macrophage assay: significant boosting of ethionamide
  concentrations at which intrinsic bactericidal activity against M. tuberculosis is seen: higher than 1 μM

## O=C(OCC1CCCC1)N1CCCCC1 [Compound 20]
[1]
  ethionamide boosting ability in M. tuberculosis culture: loss of ethionamide boosting ability
  MEC (minimum effective concentration): > 50 µM

## O=C(C1CCCC1)N1CCCC1 [Compound 11]
[1]
  MEC (minimum effective concentration): > 50 µM

## O=C(NCC1CCCC1)N1CCCC1 [Compound 3]
[3]
  Kd: 6 µM
[1]
  MEC (minimum effective concentration): >50 µM
